# From patent US20160051560A1, “TREATMENTS INVOLVING ESLICARBAZEPINE OR ESLICARBAZEPINE ACETATE” (BIAL - PORTELA & Cª, S.A., priority 2013, published 2016)
# What was measured:
# [1] = tested on: patients with acute manic (including mixed) episode, bipolar I disorder; assay: Adverse events, Studies BIA-2093-203 and BIA-2093-204 together (safety population); format: in vivo, human
# Method: (§1) Medical history and demographic information was obtained at the screening visit. A complete physical and neurological examination was performed at screening, V7 or early discontinuation (EDV), V8 and post-study visit (PSV). Vital signs (pulse rate and blood pressure) were determined at every visit. […] Clinically significant abnormalities in laboratory tests, vital signs or 12-lead ECG were considered as AEs.
# (§2) Safety was evaluated based on the occurrence of AEs. AEs were documented by the investigator with reference to intensity, dates of occurrence and resolution, outcome and relation to the treatment (causality). Furthermore, each AE was classified as being serious or non-serious. All patients with AEs were followed until their resolution. AEs were coded according to the Medical Dictionary for Regulatory Activities (MedDRA).
# Three study populations were defined for the statistical analyses: safety, intent to treat (ITT), and per protocol (PP). The safety population consisted of all patients who received at least one dose of investigational product. The ITT population consisted of all randomised patients who had at least one post-baseline efficacy assessment. The PP population consisted of all patients who complied with the study protocol without major deviations.
# [2] = tested on: patients with bipolar I disorder who responded to treatment in the acute phase studies; assay: Study BIA-2093-205: recurrence prevention study (2-week open-label Part I, double-blind fixed dose Part II); format: in vivo, human; details: for Patient worsening status according to CGI-BP Scale: No worsening / Patient worsening status according to CGI-BP Scale: Worsening: Part II; for Patient worsening status according to CGI-BP Scale: No worsening / Patient worsening status according to CGI-BP Scale: Worsening / median time to withdrawal / patients who withdrew / proportion of patients with MADRS scores ≧18 (depressive symptomatology) / proportion of patients with YMRS scores ≧15 (manic symptomatology) / mean (SD) highest mood scores (patient e-diary, 100-point visual analogue scale) / mean (SD) overall lowest mood scores (patient e-diary, 100-point visual analogue scale): ITT; for mean (SD) highest mood scores (patient e-diary, 100-point visual analogue scale) / mean (SD) overall lowest mood scores (patient e-diary, 100-point visual analogue scale) / patients who withdrew (AE section; withdrawing because of AEs): double-blind period
# Method: Part I followed an open-label design in which all participants received treatment with ESL 900 mg QD for 2 weeks. Part II followed a double-blind, parallel-group, fixed multiple dose design in which participants were randomly assigned (1:1:1) to one of the following treatment groups: (1) ESL 1800 mg QD, (2) ESL 900 mg QD, and (3) ESL 300 mg QD. […] The occurrence of a new manic/depressive episode was considered a treatment failure, and the patient was discontinued from the study.
# If the patient had—in change from preceding phase scale—a score of 5, 6, or 7 in any of 3 categories (mania, depression, or overall bipolar disorder), the illness was considered to have worsened. Secondary efficacy variables included: proportion of patients developing manic symptomatology (YMRS score ≧15); proportion of patients developing depressive symptomatology (MADRS score ≧18); the highest and lowest mood state, collected in the patient diary card; and time to withdrawal. All efficacy assessments were evaluated at each study visit.
# Mood was self-evaluated in a 100-point visual analogue scale using the DiaryPRO™ software (Invivodata®, Inc.) implemented on a touch-screen device (Palm™ OS). Patients completed their training in the e-diary use in V1 and were assisted by the study staff when necessary. Data were collected and transferred from the patient's home to the study server on a daily basis.
# as §1, §2
# Proportions of patients were compared between treatment groups using a Cochran-Mantel-Haenszel (CMH) test stratified by region. […] In all analyses, if the treatment effect was significant (p<0.05) pairwise comparisons were to be performed to assess the differences.
# Changes in total YMRS, CGI-BP and MADRS scores were tested by analysis of covariance (ANCOVA) using baseline score value, region, treatment and region-by-treatment interaction as covariates; Dunnett's multiple comparison procedure was used for the comparison of the treatment means. ANCOVA was used to evaluate the change in YMRS score from baseline to the end of the 3-week treatment period, the CGI-BP score at the end of the 3-week treatment period, the MADRS score at the end of the 3-week treatment period, and the highest and lowest mood states (the mean highest and lowest score for each patient was calculated for intervals of 28 calendar days).
# Survival analysis was performed using log-rank test/Kaplan-Meier and Cox proportional hazards model.
# [3] = ESL 600 mg, n = 72, Studies 203 and 204
# [4] = Part II Double-Blind Period, ESL 300 mg, n = 35
# [5] = Part II Double-Blind Period, ESL 900 mg, n = 26
# [6] = Part II Double-Blind Period, ESL 1800 mg, n = 26
smiles,measurement,setting,value
"CC(=O)O[C@H]1Cc2ccccc2N(C(N)=O)c2ccccc21 [ESL, (S)-10-acetoxy-10,11-dihydro-5H-dibenz[b,f]azepine-5-carboxamide]",serious AE: leukopenia and hyponatremia,[1]; ESL 600 mg,1 case
same,Any Adverse Events,[1]; [3],38 (52.8) Number (%) of patients
same,Diarrhoea,[1]; [3],8 (11.1) Number (%) of patients
same,Dizziness,[1]; [3],7 (9.7) Number (%) of patients
same,Headache,[1]; [3],8 (11.1) Number (%) of patients
same,Nausea,[1]; [3],2 (2.8) Number (%) of patients
same,Paraesthesia oral,[1]; [3],0 (0.0) Number (%) of patients
same,Somnolence,[1]; [3],2 (2.8) Number (%) of patients
same,Vomiting,[1]; [3],4 (5.6) Number (%) of patients
same,incidence of treatment-related AEs,"[1]; studies BIA-2093-203 and BIA-2093-204, comparable between treatment groups",< 35 % of patients
same,Patient worsening status according to CGI-BP Scale: No worsening,"[2]; ESL 300 mg QD, n = 34",26 (76.5) n (%)
same,Patient worsening status according to CGI-BP Scale: Worsening,"[2]; ESL 300 mg QD, n = 34",6 (17.6) n (%)
same,serious AE: mania,[2]; ESL 300 mg group,2 cases
same,proportion of patients who prematurely discontinued,[2]; ESL 300 mg group (n=19),54.3%
same,median time to withdrawal,[2]; ESL 300 mg group,254 days
same,patients who withdrew,[2]; ESL 300 mg group,52.9%
same,proportion of patients with MADRS scores ≧18 (depressive symptomatology),[2]; ESL 300 mg,14.7%
same,proportion of patients with YMRS scores ≧15 (manic symptomatology),[2]; ESL 300 mg,8.8%
same,"mean (SD) highest mood scores (patient e-diary, 100-point visual analogue scale)",[2]; ESL 300 mg,49.2 (11.0)
same,"mean (SD) overall lowest mood scores (patient e-diary, 100-point visual analogue scale)",[2]; ESL 300 mg,45.9 (10.4)
same,Patient worsening status according to CGI-BP Scale: No worsening,"[2]; ESL 900 mg QD, n = 25",14 (56.0) n (%)
same,Patient worsening status according to CGI-BP Scale: Worsening,"[2]; ESL 900 mg QD, n = 25",10 (40.0) n (%)
same,serious AE: anaemia,[2]; ESL 900 mg group,1 case
same,serious AE: disease progression,[2]; ESL 900 mg group,1 case
same,serious AE: oesophageal stenosis,[2]; ESL 900 mg group,1 case
same,serious AE: pneumonia,[2]; ESL 900 mg group,1 case
same,proportion of patients who prematurely discontinued,[2]; ESL 900 mg group (n=14),53.8%
same,median time to withdrawal,[2]; ESL 900 mg group,295 days
same,patients who withdrew,[2]; ESL 900 mg group,52.0%
same,proportion of patients with MADRS scores ≧18 (depressive symptomatology),[2]; ESL 900 mg,0.0%
same,proportion of patients with YMRS scores ≧15 (manic symptomatology),[2]; ESL 900 mg,16.0%
same,"mean (SD) highest mood scores (patient e-diary, 100-point visual analogue scale)",[2]; ESL 900 mg,50.6 (6.4)
same,"mean (SD) overall lowest mood scores (patient e-diary, 100-point visual analogue scale)",[2]; ESL 900 mg,47.3 (12.4)
same,Patient worsening status according to CGI-BP Scale: No worsening,"[2]; ESL 1800 mg QD, n = 26",16 (61.5) n (%)
same,Patient worsening status according to CGI-BP Scale: Worsening,"[2]; ESL 1800 mg QD, n = 26",6 (23.1) n (%)
same,serious AE: bronchitis,[2]; ESL 1800 mg group,1 case
same,serious AE: depression,[2]; ESL 1800 mg group,1 case
same,serious AE: disease progression,[2]; ESL 1800 mg group,1 case
same,proportion of patients who prematurely discontinued,[2]; ESL 1800 mg group (n=19),73.1%
same,median time to withdrawal,[2]; ESL 1800 mg group,109 days
same,patients who withdrew,[2]; ESL 1800 mg group,73.1%
same,proportion of patients with MADRS scores ≧18 (depressive symptomatology),[2]; ESL 1800 mg,11.5%
same,proportion of patients with YMRS scores ≧15 (manic symptomatology),[2]; ESL 1800 mg,19.2%
same,"mean (SD) highest mood scores (patient e-diary, 100-point visual analogue scale)",[2]; ESL 1800 mg,55.1 (10.4)
same,"mean (SD) overall lowest mood scores (patient e-diary, 100-point visual analogue scale)",[2]; ESL 1800 mg,51.1 (12.3)
same,patients who showed no worsening according to the CGI-BP scale,"[2]; ITT population, all treatment groups (300, 900, 1800 mg), no significant dose difference (p=0.250)",at least 50%
same,Any Adverse Events,"[2]; Part I Open-Label Period, ESL 900 mg, n = 104",20 (19.2) Number (%) of patients
same,Agitation,[2]; [4],2 (5.7) Number (%) of patients
same,Any Adverse Events,[2]; [4],14 (40.0) Number (%) of patients
same,Aspartate amino-transferase increased,[2]; [4],0 (0.0) Number (%) of patients
same,Blood creatine phosphokinase increased,[2]; [4],1 (2.9) Number (%) of patients
same,Bronchitis,[2]; [4],0 (0.0) Number (%) of patients
same,Depression,[2]; [4],3 (8.6) Number (%) of patients
same,Dizziness,[2]; [4],0 (0.0) Number (%) of patients
same,Mania,[2]; [4],2 (5.7) Number (%) of patients
same,Nausea,[2]; [4],0 (0.0) Number (%) of patients
same,Sinus tachycardia,[2]; [4],2 (5.7) Number (%) of patients
same,Agitation,[2]; [5],0 (0.0) Number (%) of patients
same,Any Adverse Events,[2]; [5],14 (53.8) Number (%) of patients
same,Aspartate amino-transferase increased,[2]; [5],0 (0.0) Number (%) of patients
same,Blood creatine phosphokinase increased,[2]; [5],0 (0.0) Number (%) of patients
same,Bronchitis,[2]; [5],1 (3.8) Number (%) of patients
same,Depression,[2]; [5],3 (11.5) Number (%) of patients
same,Dizziness,[2]; [5],0 (0.0) Number (%) of patients
same,Mania,[2]; [5],0 (0.0) Number (%) of patients
same,Nausea,[2]; [5],0 (0.0) Number (%) of patients
same,Sinus tachycardia,[2]; [5],1 (3.8) Number (%) of patients
same,Agitation,[2]; [6],1 (3.8) Number (%) of patients
same,Any Adverse Events,[2]; [6],18 (69.2) Number (%) of patients
same,Aspartate amino-transferase increased,[2]; [6],2 (7.7) Number (%) of patients
same,Blood creatine phosphokinase increased,[2]; [6],3 (11.5) Number (%) of patients
same,Bronchitis,[2]; [6],2 (7.7) Number (%) of patients
same,Depression,[2]; [6],1 (3.8) Number (%) of patients
same,Dizziness,[2]; [6],3 (11.5) Number (%) of patients
same,Mania,[2]; [6],0 (0.0) Number (%) of patients
same,Nausea,[2]; [6],3 (11.5) Number (%) of patients
same,Sinus tachycardia,[2]; [6],0 (0.0) Number (%) of patients
same,deaths,[2]; all treatment groups,No deaths occurred
same,patients who withdrew (AE section; withdrawing because of AEs),[2]; ESL 300 mg group (n=3),8.6%
same,patients who withdrew (AE section; withdrawing because of AEs),[2]; ESL 900 mg group (n=3),11.5%
same,patients who withdrew (AE section; withdrawing because of AEs),[2]; ESL 1800 mg group (n=1),3.8%
same,patients with AEs,"[2]; open-label period, ESL 900 mg QD (20 patients)",19.2%
same,number of AEs reported,"[2]; open-label period, ESL 900 mg QD, in 20 patients",42 AEs
same,premature discontinuation because of treatment failure,"[2]; overall (n=22), similar proportions between treatment groups",21.2%
same,patients completed 6 months of treatment,"[2]; overall, of 104 patients enrolled in Part I (n=35)",33.7%
same,incidence of treatment-related AEs,"[2]; recurrence prevention study, comparable between treatment groups",< 25 % of patient
